Data: US9663519B2, “Compounds useful as inhibitors of ATR kinase” (Vertex Pharmaceuticals Incorporated, priority 2013, dated 2017)

How the values were obtained:
full-length ATR = full-length ATR (Homo sapiens (Human), UniProt Q13535); assay: ATR Inhibition Assay (radioactive-phosphate incorporation); type: biochemical; conditions: Ki(app); 5 nM full-length ATR, 10 μM ATP, 25° C.
Method: Compounds were screened for their ability to inhibit ATR kinase using a radioactive-phosphate incorporation assay. Assays were carried out in a mixture of 50 mM Tris/HCl (pH 7.5), 10 mM MgCl2 and 1 mM DTT. Final substrate concentrations were 10 μM [γ-33P]ATP (3 mCi 33P ATP/mmol ATP, Perkin Elmer) and 800 μM target peptide (ASELPASQPQPFSAKKK (SEQ. ID NO: 1)).
Assays were carried out at 25° C. in the presence of 5 nM full-length ATR. An assay stock buffer solution was prepared containing all of the reagents listed above, with the exception of ATP and the test compound of interest. 13.5 μL of the stock solution was placed in a 96 well plate followed by addition of 2 μL of DMSO stock containing serial dilutions of the test compound (typically starting from a final concentration of 15 μM with 3-fold serial dilutions) in duplicate (final DMSO concentration 7%). The plate was pre-incubated for 10 minutes at 25° C. and the reaction initiated by addition of 15 μL [γ-33P]ATP (final concentration 10 μM).
The reaction was stopped after […] by the addition of 30 μL 0.1M phosphoric acid containing 2 mM ATP. A multiscreen phosphocellulose filter 96-well plate (Millipore, Cat no. MAPHN0B50) was pretreated with 100 μL 0.2M phosphoric acid prior to the addition of 45 μL of the stopped assay mixture. The plate was washed with 5×200 μL 0.2M phosphoric acid. After drying, 100 μL Optiphase ‘SuperMix’ liquid scintillation cocktail (Perkin Elmer) was added to the well prior to scintillation counting (1450 Microbeta Liquid Scintillation Counter, Wallac).
After removing mean background values for all of the data points, Ki(app) data were calculated from non-linear regression analysis of the initial rate data using the Prism software package (GraphPad Prism version 3.0cx for Macintosh, GraphPad Software, San Diego Calif., USA).

[1] = tested on: HCT116 colorectal cancer cells; assay: Cisplatin Sensitization Assay (96 h cell viability MTS); type: cell-based; conditions: Cisplatin sensitization value: concentration of compound required to reduce the IC50 of Cisplatin alone by at least 3-fold; HCT116, 96 h MTS
Method: Compounds can be screened for their ability to sensitize HCT116 colorectal cancer cells to Cisplatin using a 96 h cell viability (MTS) assay. […] Compounds and Cisplatin are then both added simultaneously to the cell media in 2-fold serial dilutions from a top final concentration of 10 μM as a full matrix of concentrations in a final cell volume of 200 μl, and the cells are then incubated at 37° C. in 5% CO2. After 96 h, 40 μl of MTS reagent (Promega G358a) is added to each well and the cells are incubated for 1 h at 37° C. in 5% CO2. Finally, absorbance is measured at 490 nm using a SpectraMax Plus 384 reader (Molecular Devices) and the concentration of compound required to reduce the IC50 of Cisplatin alone by at least 3-fold (to 1 decimal place) can be reported.

Chain of full-length ATR (Q13535 whole entry): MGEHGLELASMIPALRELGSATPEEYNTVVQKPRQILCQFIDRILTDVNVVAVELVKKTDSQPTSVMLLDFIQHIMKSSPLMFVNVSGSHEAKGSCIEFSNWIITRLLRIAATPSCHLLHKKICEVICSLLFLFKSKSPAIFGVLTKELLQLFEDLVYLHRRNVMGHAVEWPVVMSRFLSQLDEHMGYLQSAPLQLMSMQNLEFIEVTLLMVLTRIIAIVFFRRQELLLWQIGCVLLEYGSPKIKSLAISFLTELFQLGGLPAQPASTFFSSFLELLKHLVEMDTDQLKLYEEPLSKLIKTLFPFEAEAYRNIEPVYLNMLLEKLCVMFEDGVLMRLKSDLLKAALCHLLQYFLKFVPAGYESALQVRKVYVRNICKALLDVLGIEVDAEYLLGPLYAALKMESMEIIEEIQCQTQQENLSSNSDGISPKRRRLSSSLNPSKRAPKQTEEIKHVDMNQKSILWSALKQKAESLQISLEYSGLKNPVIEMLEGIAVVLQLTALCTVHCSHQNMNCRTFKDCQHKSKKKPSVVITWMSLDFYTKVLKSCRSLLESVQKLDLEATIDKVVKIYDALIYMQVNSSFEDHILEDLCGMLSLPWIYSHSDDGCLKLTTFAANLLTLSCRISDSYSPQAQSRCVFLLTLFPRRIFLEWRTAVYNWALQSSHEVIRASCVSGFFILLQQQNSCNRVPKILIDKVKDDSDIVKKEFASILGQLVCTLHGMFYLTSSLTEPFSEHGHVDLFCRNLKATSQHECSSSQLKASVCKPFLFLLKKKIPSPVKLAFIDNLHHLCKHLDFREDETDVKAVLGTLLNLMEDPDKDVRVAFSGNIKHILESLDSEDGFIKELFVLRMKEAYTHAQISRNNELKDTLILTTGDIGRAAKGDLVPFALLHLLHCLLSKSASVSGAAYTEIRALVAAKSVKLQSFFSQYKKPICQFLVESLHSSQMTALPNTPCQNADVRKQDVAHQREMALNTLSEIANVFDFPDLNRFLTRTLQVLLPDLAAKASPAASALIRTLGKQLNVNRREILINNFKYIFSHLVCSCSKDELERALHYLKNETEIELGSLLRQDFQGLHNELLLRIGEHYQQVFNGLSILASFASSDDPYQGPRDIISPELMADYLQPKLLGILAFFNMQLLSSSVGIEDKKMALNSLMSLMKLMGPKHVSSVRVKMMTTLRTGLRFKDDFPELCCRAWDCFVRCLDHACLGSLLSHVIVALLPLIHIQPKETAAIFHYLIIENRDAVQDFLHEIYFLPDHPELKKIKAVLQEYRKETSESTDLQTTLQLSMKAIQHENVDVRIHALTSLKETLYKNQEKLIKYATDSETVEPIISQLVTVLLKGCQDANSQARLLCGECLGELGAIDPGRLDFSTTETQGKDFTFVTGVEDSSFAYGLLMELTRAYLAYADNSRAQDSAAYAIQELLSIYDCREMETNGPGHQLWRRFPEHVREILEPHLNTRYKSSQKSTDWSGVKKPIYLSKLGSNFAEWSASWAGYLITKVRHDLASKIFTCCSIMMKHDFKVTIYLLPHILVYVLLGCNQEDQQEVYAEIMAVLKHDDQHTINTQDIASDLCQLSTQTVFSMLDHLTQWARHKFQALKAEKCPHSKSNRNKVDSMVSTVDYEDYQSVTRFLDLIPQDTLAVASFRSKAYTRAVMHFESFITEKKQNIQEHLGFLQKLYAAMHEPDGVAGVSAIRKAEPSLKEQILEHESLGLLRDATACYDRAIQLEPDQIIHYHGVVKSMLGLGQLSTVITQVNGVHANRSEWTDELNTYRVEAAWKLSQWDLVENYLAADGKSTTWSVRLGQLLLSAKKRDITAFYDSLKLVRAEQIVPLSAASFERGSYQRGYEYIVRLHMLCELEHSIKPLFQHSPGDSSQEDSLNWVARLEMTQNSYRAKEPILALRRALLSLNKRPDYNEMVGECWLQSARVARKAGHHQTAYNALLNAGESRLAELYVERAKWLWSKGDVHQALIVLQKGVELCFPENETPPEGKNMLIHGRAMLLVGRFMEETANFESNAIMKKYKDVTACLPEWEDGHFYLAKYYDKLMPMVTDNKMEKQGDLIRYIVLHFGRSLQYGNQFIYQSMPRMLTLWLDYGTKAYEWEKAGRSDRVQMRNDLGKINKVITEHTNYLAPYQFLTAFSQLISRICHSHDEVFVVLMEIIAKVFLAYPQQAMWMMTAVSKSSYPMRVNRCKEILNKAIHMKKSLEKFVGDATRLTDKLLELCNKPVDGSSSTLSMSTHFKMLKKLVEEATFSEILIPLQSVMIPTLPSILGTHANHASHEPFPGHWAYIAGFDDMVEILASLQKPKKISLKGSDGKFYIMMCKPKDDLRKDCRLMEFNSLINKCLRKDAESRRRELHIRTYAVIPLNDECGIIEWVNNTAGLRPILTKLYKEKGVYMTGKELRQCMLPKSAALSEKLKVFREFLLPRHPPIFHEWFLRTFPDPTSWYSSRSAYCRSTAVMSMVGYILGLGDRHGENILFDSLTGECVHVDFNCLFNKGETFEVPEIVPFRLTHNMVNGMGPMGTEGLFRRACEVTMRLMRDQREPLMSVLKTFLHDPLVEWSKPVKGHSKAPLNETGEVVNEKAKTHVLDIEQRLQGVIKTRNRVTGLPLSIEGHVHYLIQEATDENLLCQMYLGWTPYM

Compound	Ki (full-length ATR) [nM]	Synergy with Cisplatin [1]
COc1cc(Cl)ncc1NC(=O)c1c(N)nn2cc3c(nc12)CCN(C)C3 [Compound I-7, 2-amino-N-(6-chloro-4-methoxypyridin-3-yl)-7-methyl-5,6,7,8-tetrahydropyrazolo[1,5-a]pyrido[4,3-d]pyrimidine-3-carboxamide]	10 to 1000	++ (Cisplatin sensitization value >0.02 μM but <0.2 μM)
CN1CCc2nc3c(C(=O)Nc4cncnc4C4CC4)c(N)nn3cc2C1 [Compound I-15, 2-amino-N-(4-cyclopropylpyrimidin-5-yl)-7-methyl-5,6,7,8-tetrahydropyrazolo[1,5-a]pyrido[4,3-d]pyrimidine-3-carboxamide]	10 to 1000	++ (Cisplatin sensitization value >0.02 μM but <0.2 μM)
Nc1nn2cc3c(nc2c1C(=O)Nc1cnccc1C1CC1)CCN(C1COC1)C3 [Compound I-21, 2-amino-N-(4-cyclopropylpyridin-3-yl)-7-(oxetan-3-yl)-5,6,7,8-tetrahydropyrazolo[1,5-a]pyrido[4,3-d]pyrimidine-3-carboxamide]	10 to 1000	++ (Cisplatin sensitization value >0.02 μM but <0.2 μM)
CN1CCc2nc3c(C(=O)Nc4cnccc4C4CC4)c(N)nn3cc2C1 [Compound I-11, 2-amino-N-(4-cyclopropylpyridin-3-yl)-7-methyl-5,6,7,8-tetrahydropyrazolo[1,5-a]pyrido[4,3-d]pyrimidine-3-carboxamide]	10 to 1000	+++ (Cisplatin sensitization value of <0.02 μM)
CC(C)Oc1ncncc1NC(=O)c1c(N)nn2cc3c(nc12)CCNC3 [Compound I-10, 2-amino-N-(4-isopropoxypyrimidin-5-yl)-5,6,7,8-tetrahydropyrazolo[1,5-a]pyrido[4,3-d]pyrimidine-3-carboxamide]	10 to 1000	++ (Cisplatin sensitization value >0.02 μM but <0.2 μM)
COc1ccncc1NC(=O)c1c(N)nn2cc3c(nc12)CCN(C(C)C)C3 [Compound I-17, 2-amino-7-isopropyl-N-(4-methoxypyridin-3-yl)-5,6,7,8-tetrahydropyrazolo[1,5-a]pyrido[4,3-d]pyrimidine-3-carboxamide]	10 to 1000	++ (Cisplatin sensitization value >0.02 μM but <0.2 μM)
COc1ncncc1NC(=O)c1c(N)nn2cc3c(nc12)CCNC3 [Compound I-9, 2-amino-N-(4-methoxypyrimidin-5-yl)-5,6,7,8-tetrahydropyrazolo[1,5-a]pyrido[4,3-d]pyrimidine-3-carboxamide]	10 to 1000	+ (Cisplatin sensitization value >0.2 μM but <5 μM)
COc1ccncc1NC(=O)c1c(N)nn2cc3c(nc12)CCN(CCF)C3 [Compound I-19, 2-amino-7-(2-fluoroethyl)-N-(4-methoxypyridin-3-yl)-5,6,7,8-tetrahydropyrazolo[1,5-a]pyrido[4,3-d]pyrimidine-3-carboxamide]	10 to 1000	++ (Cisplatin sensitization value >0.02 μM but <0.2 μM)
COCCN1CCc2nc3c(C(=O)Nc4cnccc4C4CC4)c(N)nn3cc2C1 [Compound I-28, 2-amino-N-(4-cyclopropylpyridin-3-yl)-7-(2-methoxyethyl)-5,6,7,8-tetrahydropyrazolo[1,5-a]pyrido[4,3-d]pyrimidine-3-carboxamide]	10 to 1000	++ (Cisplatin sensitization value >0.02 μM but <0.2 μM)
COc1ccncc1NC(=O)c1c(N)nn2cc3c(nc12)C(C)(C)CNC3 [Compound I-31, 2-amino-N-(4-methoxypyridin-3-yl)-5,5-dimethyl-5,6,7,8-tetrahydropyrazolo[1,5-a]pyrido[4,3-d]pyrimidine-3-carboxamide]	10 to 1000	++ (Cisplatin sensitization value >0.02 μM but <0.2 μM)
COc1ccncc1NC(=O)c1c(N)nn2cc3c(nc12)CCN(C1CC1)C3 [Compound I-18, 2-amino-7-cyclopropyl-N-(4-methoxypyridin-3-yl)-5,6,7,8-tetrahydropyrazolo[1,5-a]pyrido[4,3-d]pyrimidine-3-carboxamide]	10 to 1000	++ (Cisplatin sensitization value >0.02 μM but <0.2 μM)
Nc1nn2cc3c(nc2c1C(=O)Nc1cnccc1OC1CCOCC1)CCNC3 [Compound I-8, 2-amino-N-(4-((tetrahydro-2H-pyran-4-yl)oxy)pyridin-3-yl)-5,6,7,8-tetrahydropyrazolo[1,5-a]pyrido[4,3-d]pyrimidine-3-carboxamide]	10 to 1000	++ (Cisplatin sensitization value >0.02 μM but <0.2 μM)
CC(C)Oc1ncncc1NC(=O)c1c(N)nn2cc3c(nc12)CCN(C)C3 [Compound I-16, 2-amino-N-(4-isopropoxypyrimidin-5-yl)-7-methyl-5,6,7,8-tetrahydropyrazolo[1,5-a]pyrido[4,3-d]pyrimidine-3-carboxamide]	10 to 1000	++ (Cisplatin sensitization value >0.02 μM but <0.2 μM)
COc1ccncc1NC(=O)c1c(N)nn2cc3c(nc12)CCN(C1COC1)C3 [Compound I-24, 2-amino-N-(4-methoxypyridin-3-yl)-7-(oxetan-3-yl)-5,6,7,8-tetrahydropyrazolo[1,5-a]pyrido[4,3-d]pyrimidine-3-carboxamide]	10 to 1000	++ (Cisplatin sensitization value >0.02 μM but <0.2 μM)
Nc1nn2cc3c(nc2c1C(=O)Nc1cnccc1OCC(F)(F)F)CCNC3 [Compound I-4, 2-amino-N-(4-(2,2,2-trifluoroethoxy)pyridin-3-yl)-5,6,7,8-tetrahydropyrazolo[1,5-a]pyrido[4,3-d]pyrimidine-3-carboxamide]	10 to 1000	+++ (Cisplatin sensitization value of <0.02 μM)
CC(C)Oc1ccncc1NC(=O)c1c(N)nn2cc3c(nc12)CCNC3 [Compound I-3, 2-amino-N-(4-isopropoxypyridin-3-yl)-5,6,7,8-tetrahydropyrazolo[1,5-a]pyrido[4,3-d]pyrimidine-3-carboxamide]	10 to 1000	+++ (Cisplatin sensitization value of <0.02 μM)
Cc1ccncc1NC(=O)c1c(N)nn2cc3c(nc12)CCN(C1COC1)C3 [Compound I-20, 2-amino-N-(4-methylpyridin-3-yl)-7-(oxetan-3-yl)-5,6,7,8-tetrahydropyrazolo[1,5-a]pyrido[4,3-d]pyrimidine-3-carboxamide]	10 to 1000	++ (Cisplatin sensitization value >0.02 μM but <0.2 μM)
Nc1nn2cc3c(nc2c1C(=O)Nc1cnccc1-c1ccccc1)CCN(C1COC1)C3 [Compound I-23, 2-amino-7-(oxetan-3-yl)-N-(4-phenylpyridin-3-yl)-5,6,7,8-tetrahydropyrazolo[1,5-a]pyrido[4,3-d]pyrimidine-3-carboxamide]	10 to 1000	–
Cn1cncc1-c1ccncc1NC(=O)c1c(N)nn2cc3c(nc12)CCN(C1COC1)C3 [Compound I-32, 2-amino-N-(4-(1-methyl-1H-imidazol-5-yl)pyridin-3-yl)-7-(oxetan-3-yl)-5,6,7,8-tetrahydropyrazolo[1,5-a]pyrido[4,3-d]pyrimidine-3-carboxamide]	10 to 1000	–
COc1ccncc1NC(=O)c1c(N)nn2cc3c(nc12)CCN(C(C)(C)C)C3 [Compound I-29, 2-amino-7-(tert-butyl)-N-(4-methoxypyridin-3-yl)-5,6,7,8-tetrahydropyrazolo[1,5-a]pyrido[4,3-d]pyrimidine-3-carboxamide]	10 to 1000	–
